# Measured values as given in patent US10246465B2 (priority 2014, dated 2019).
# Biological target: human σ1 receptor (Homo sapiens, UniProt Q99720)
# Experiment: biochemical
# Format: binding
# Set-up: μ and σ1 dual binding: key to the marks not given beside the values
# Settings: one combined class from Ki at human σ1 receptor (A1) and Ki at human μ-opioid receptor (A2)
# Protocol: Human σ1 Receptor Radioligand Assay
# The assay was carried out with 7 μg of membrane suspension, 5 nM of [^3H](+)-pentazocine in either absence or presence of either buffer or 10 μM Haloperidol for total and non-specific binding, respectively. Binding buffer contained Tris-HCl 50 mM at pH 8. Plates were incubated at 37° C. for 120 minutes. After the incubation period, the reaction mix was then transferred to MultiScreen HTS, FC plates (Millipore), filtered and plates were washed 3 times with ice-cold 10 mM Tris-HCL (pH7.4). Filters were dried and counted at approximately 40% efficiency in a MicroBeta scintillation counter (Perkin-Elmer) using EcoScint liquid scintillation cocktail
# Chain of human σ1 receptor (Q99720 whole entry): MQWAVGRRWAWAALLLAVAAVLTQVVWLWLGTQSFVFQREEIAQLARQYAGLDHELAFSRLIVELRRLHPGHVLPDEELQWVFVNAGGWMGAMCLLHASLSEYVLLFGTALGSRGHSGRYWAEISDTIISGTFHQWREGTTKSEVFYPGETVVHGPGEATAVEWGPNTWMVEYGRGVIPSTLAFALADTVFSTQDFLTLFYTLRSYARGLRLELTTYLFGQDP
Ki (read-out: μ and σ1 dual binding) [nM],SMILES,μ and σ1 dual binding
–,"CC(C)N1CC2(CCN(CCc3c(F)cccc3F)CC2)O[C@H](C)C1=O.Cl [Example 49, (R)-9-(2,6-difluorophenethyl)-4-isopropyl-2-methyl-1-oxa-4,9-diazaspiro[5.5]undecan-3-one hydrochloride]",++
–,"CCN1CC2(CCN(CCc3ncccc3Cl)CC2)OC2(CC2)C1=O.Cl [Example 5, 8-[2-(3-chloropyridin-2-yl)ethyl]-12-ethyl-4-oxa-8,12-diazadispiro[2.1.5.3]tridecan-13-one hydrochloride]",++
–,"CCN1CC2(CCN(CCc3ccc(O)cc3)CC2)OC2(CC2)C1=O.Cl [Example 62, 12-ethyl-8-(4-hydroxyphenethyl)-4-oxa-8,12-diazadispiro[2.1.5.3]tridecan-13-one hydrochloride]",++
–,"CCN1CC2(CCN(CCc3ncccc3F)CC2)OC2(CC2)C1=O.Cl [Example 3, 12-ethyl-8-[2-(3-fluoropyridin-2-yl)ethyl]-4-oxa-8,12-diazadispiro[2.1.5.3]tridecan-13-one hydrochloride]",++
–,"CCN1CC2(CCN(CCc3cccc(N)n3)CC2)OC2(CC2)C1=O [Example 6, 8-[2-(6-aminopyridin-2-yl)ethyl]-12-ethyl-4-oxa-8,12-diazadispiro[2.1.5.3]tridecan-13-one]",++
–,"C[C@H]1OC2(CCN(CCc3ccccc3OC(F)(F)F)CC2)CN(C)C1=O.Cl [Example 45, (R)-2,4-dimethyl-9-(2-(trifluoromethoxy)phenethyl)-1-oxa-4,9-diazaspiro[5.5]undecan-3-one hydrochloride]",++
–,"CCN1CC2(CCN(CCc3ccc(C(=O)NC)cc3)CC2)OC2(CC2)C1=O.Cl [Example 59, 4-(2-{12-ethyl-13-oxo-4-oxa-8,12-diazadispiro[2.1.5.3]tridecan-8-yl}ethyl)-N-methylbenzamide hydrochloride]",++
–,"C[C@H]1OC2(CCN(CCc3cccc(F)c3F)CC2)CN(C)C1=O [Example 74, (R)-9-(2,3-difluorophenethyl)-2,4-dimethyl-1-oxa-4,9-diazaspiro[5.5]undecan-3-one]",++
–,"C[C@H]1OC2(CCN(CCc3cccc(F)c3F)CC2)CN(C2CC2)C1=O [Example 91, (R)-4-cyclopropyl-9-(2,3-difluorophenethyl)-2-methyl-1-oxa-4,9-diazaspiro[5.5]undecan-3-one]",++
–,"CN1CC2(CCN(CCc3ccccc3)CC2)O[C@H](Cc2ccccc2)C1=O [Example 95, (R)-2-benzyl-4-methyl-9-phenethyl-1-oxa-4,9-diazaspiro[5.5]undecan-3-one]",++
–,"CCN1CC2(CCN(CCc3cccc(C#N)c3)CC2)OC2(CC2)C1=O.Cl [Example 27, 3-(2-{12-ethyl-13-oxo-4-oxa-8,12-diazadispiro[2.1.5.3]tridecan-8-yl}ethyl)benzonitrile hydrochloride]",++
–,"CCN1CC2(CCN(CCc3cccc(F)c3F)CC2)O[C@H](C)C1=O [Example 87, (R)-9-(2,3-difluorophenethyl)-4-ethyl-2-methyl-1-oxa-4,9-diazaspiro[5.5]undecan-3-one]",++
–,"C[C@H]1OC2(CCN(CCc3ccccc3C(F)(F)F)CC2)CN(C)C1=O.Cl [Example 48, (R)-2,4-dimethyl-9-(2-(trifluoromethyl)phenethyl)-1-oxa-4,9-diazaspiro[5.5]undecan-3-one hydrochloride]",++
–,"CCN1CC2(CCN(CCc3ccncc3)CC2)OC2(CC2)C1=O [Example 23, 12-ethyl-8-[2-(pyridin-4-yl)ethyl]-4-oxa-8,12-diazadispiro[2.1.5.3]tridecan-13-one]",++
–,"CN1CC2(CCN(CCc3ccccc3)CC2)OC(C)(C)C1=O.Cl [Example 54, 2,2,4-trimethyl-9-phenethyl-1-oxa-4,9-diazaspiro[5.5]undecan-3-one hydrochloride]",++
–,"CCN1CC2(CCN(CCc3ccccc3O)CC2)OC2(CC2)C1=O [Example 60, 12-ethyl-8-(2-hydroxyphenethyl)-4-oxa-8,12-diazadispiro[2.1.5.3]tridecan-13-one]",++
–,"CCN1CC2(CCN(CCc3cccc(F)c3F)CC2)OC(C)(C)C1=O [Example 89, 9-(2,3-difluorophenethyl)-4-ethyl-2,2-dimethyl-1-oxa-4,9-diazaspiro[5.5]undecan-3-one]",++
–,"CCN1CC2(CCN(CCc3cccc(NC(N)=O)c3)CC2)OC2(CC2)C1=O [Example 58, [3-(2-{12-ethyl-13-oxo-4-oxa-8,12-diazadispiro[2.1.5.3]tridecan-8-yl}ethyl)phenyl]urea]",++
–,"CN1CC2(CCN(CCc3ccccc3F)CC2)OC2(CC2)C1=O.Cl [Example 29, 8-[2-fluorophenethyl]-12-methyl-4-oxa-8,12-diazadispiro[2.1.5.3]tridecan-13-one hydrochloride]",++
–,"CCN1CC2(CCN(CCc3cccc(NC(C)=O)c3)CC2)OC2(CC2)C1=O [Example 57, N-[3-(2-{12-ethyl-13-oxo-4-oxa-8,12-diazadispiro[2.1.5.3]tridecan-8-yl}ethyl)phenyl]acetamide]",++
–,"CC1(C)OC2(CCN(CCc3cccc(F)c3F)CC2)CN(C2CC2)C1=O [Example 85, 4-cyclopropyl-9-(2,3-difluorophenethyl)-2,2-dimethyl-1-oxa-4,9-diazaspiro[5.5]undecan-3-one]",++
> 500,"CCN1CC2(CCN(CCc3cccc(N)c3)CC2)OC2(CC2)C1=O [Example 56, 8-(3-aminophenethyl)-12-ethyl-4-oxa-8,12-diazadispiro[2.1.5.3]tridecan-13-one]",–
–,"CN1CC2(CCN(CCc3ccccc3)CC2)O[C@H](CCO)C1=O [Example 94, (R)-2-(2-hydroxyethyl)-4-methyl-9-phenethyl-1-oxa-4,9-diazaspiro[5.5]undecan-3-one]",++
–,"C[C@H]1OC2(CCN(CCc3cc(F)ccc3F)CC2)CN(C)C1=O [Example 81, (R)-9-(2,5-difluorophenethyl)-2,4-dimethyl-1-oxa-4,9-diazaspiro[5.5]undecan-3-one]",++
–,"CCN1CC2(CCN(CCc3cc(C(F)(F)F)ccn3)CC2)OC2(CC2)C1=O.Cl [Example 4, 12-ethyl-8-{2-[4-(trifluoromethyl)pyridin-2-yl]ethyl}-4-oxa-8,12-diazadispiro[2.1.5.3]tridecan-13-one hydrochloride]",++
